Results: PubChem BioAssay AID220 (DTP/NCI, 2004)
Where “and” joins values, the source holds several entries; their conditions need not be identical. Equal values may be shown once. Records with an inconclusive call do not appear.

System: CD8F1 mice, subcutaneous mammary adenocarcinoma, T/C%
Experiment: NCI In Vivo Anticancer Drug Screen. Data for tumor model Mammary Adenocarcinoma CD8F1 (subcutaneous) in CD8F1
Settings: higher = larger tumour
Outline: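 Mice carrying transplanted tumors received test compound, and survival or tumor size was recorded. Each value is the treated-group measurement divided by the corresponding measurement in vehicle-dosed controls.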

[1] = endpoint: median tumor weight change, dose: 125.0 mg/kg/injection, schedule: Q01DX001 (ip), vehicle: Klucel (hydroxypropylcellulose) (HPC)
[2] = endpoint: median tumor weight change, dose: 250.0 mg/kg/injection, schedule: Q01DX001 (ip), vehicle: Klucel (hydroxypropylcellulose) (HPC)
[3] = endpoint: median tumor weight change, dose: 125.0 mg/kg/injection, schedule: Q01DX001 (ip), vehicle: suspension in saline
[4] = endpoint: median tumor weight change, dose: 500.0 mg/kg/injection, schedule: Q01DX001 (ip), vehicle: Klucel (hydroxypropylcellulose) (HPC)
[5] = endpoint: median tumor weight (est.), dose: 25.0 mg/kg/injection, schedule: Q07DX005 (ip), vehicle: saline
[6] = endpoint: median tumor weight (est.), dose: 50.0 mg/kg/injection, schedule: Q07DX005 (ip), vehicle: saline
[7] = endpoint: median tumor weight (est.), dose: 100.0 mg/kg/injection, schedule: Q07DX005 (ip), vehicle: saline
[8] = endpoint: median tumor weight (est.), dose: 200.0 mg/kg/injection, schedule: Q07DX005 (ip), vehicle: saline
[9] = endpoint: median tumor weight (est.), dose: 400.0 mg/kg/injection, schedule: Q07DX005 (ip), vehicle: saline

With `CCN1C=C/C(=C\C=C/c2cc[n+](CC)c3ccccc23)c2ccccc21` the T/C (endpoint: median tumor weight (est.), dose: 0.06 mg/kg/injection, schedule: Q07DX005 (ip), vehicle: saline) was 123 % of control, the T/C (endpoint: median tumor weight (est.), dose: 0.06 mg/kg/injection, schedule: Q07DX005 (ip), vehicle: suspension in saline) was 104 % of control and the T/C (endpoint: median tumor weight (est.), dose: 0.12 mg/kg/injection, schedule: Q07DX005 (ip), vehicle: saline) was 88 % of control. For the same molecule, the T/C (endpoint: median tumor weight (est.), dose: 0.12 mg/kg/injection, schedule: Q07DX005 (ip), vehicle: suspension in saline) was 83 % of control, the T/C (endpoint: median tumor weight (est.), dose: 0.25 mg/kg/injection, schedule: Q07DX005 (ip), vehicle: saline) was 150 % of control and the T/C (endpoint: median tumor weight (est.), dose: 0.25 mg/kg/injection, schedule: Q07DX005 (ip), vehicle: suspension in saline) was 119 % of control. The T/C (endpoint: median tumor weight (est.), dose: 0.5 mg/kg/injection, schedule: Q07DX005 (ip), vehicle: saline) was 109 % of control, the T/C (endpoint: median tumor weight (est.), dose: 1.0 mg/kg/injection, schedule: Q07DX005 (ip), vehicle: saline) was 101 % of control and the T/C (endpoint: median tumor weight (est.), dose: 1.0 mg/kg/injection, schedule: Q07DX005 (ip), vehicle: suspension in saline) was 75 % of control.
`c1cc(OCC2CO2)ccc1OCC1CO1` (stereo not given) was tested, and the T/C [1] was 92 % of control and the T/C [2] was 113 % of control.
In the case of `O=C1N(CC2CO2)CCN1CC1CO1` (stereo not given), the T/C [3] is reported as 30 % of control.
In the case of `Clc1ccc(C(c2ccc(Cl)cc2)C(Cl)(Cl)Cl)cc1`, the T/C (endpoint: median tumor weight change, dose: 31.25 mg/kg/injection, schedule: Q01DX001 (ip), vehicle: Klucel (hydroxypropylcellulose) (HPC)) is reported as 106 % of control, the T/C (endpoint: median tumor weight change, dose: 62.5 mg/kg/injection, schedule: Q01DX001 (ip), vehicle: Klucel (hydroxypropylcellulose) (HPC)) is reported as 84 % of control and the T/C [1] is reported as 123 % of control. The T/C [2] was 80 % of control and the T/C [4] was 59 % of control.
`OCC1(CO)COC2(CCCCC2)N1` was tested, and the T/C (endpoint: median tumor weight (est.), dose: 12.5 mg/kg/injection, schedule: Q07DX005 (ip), vehicle: saline) was 78 % of control, the T/C [5] was 64 % of control and the T/C [6] was 112 % of control. The T/C [7] was 105 % of control, the T/C [8] was 81 % of control and the T/C [9] was 93 % of control.
`CC1=C(/C=C/C(C)=C/C=C/C(C)=C/CO)C(C)(C)CCC1` was tested, and the T/C (endpoint: median tumor weight (est.), dose: 8.0 mg/kg/injection, schedule: Q07DX005 (ip), vehicle: saline with Tween-80) was 195 % of control and the T/C (endpoint: median tumor weight (est.), dose: 32.0 mg/kg/injection, schedule: Q07DX005 (ip), vehicle: saline with Tween-80) was 118 % of control.
`COP12(OCCO1)SC(C(F)(F)F)=C(C(F)(F)F)S2` was tested, and the T/C [5] was 210 % of control, the T/C [6] was 183 % of control and the T/C [7] was 351 % of control. The T/C [8] was 159 % of control and the T/C [9] was 72 % of control.
For `C[CH2][Sn]([CH2]C)([CH2]C(=O)OC)[CH2]C(=O)OC`, the T/C (endpoint: median tumor weight change, dose: 16.0 mg/kg/injection, schedule: Q01DX001 (ip), vehicle: saline with Tween-80) was 78 % of control.
In the case of `NC1(C(=O)O)CCCC1`, the T/C (endpoint: mean tumor weight, dose: 5.0 mg/kg/injection, schedule: Q01DX009 (ip), vehicle: saline) is reported as 89 % of control, the T/C (endpoint: mean tumor weight, dose: 10.0 mg/kg/injection, schedule: Q01DX009 (ip), vehicle: saline) is reported as 30 % of control and the T/C (endpoint: mean tumor weight, dose: 12.5 mg/kg/injection, schedule: Q07DX005 (ip), vehicle: saline) is reported as 40 % of control. The T/C (endpoint: mean tumor weight, dose: 12.5 mg/kg/injection, schedule: Q07DX007 (ip), vehicle: saline) was 104 % of control, the T/C (endpoint: mean tumor weight, dose: 20.0 mg/kg/injection, schedule: Q01DX009 (ip), vehicle: saline) was 5 % of control and the T/C (endpoint: mean tumor weight, dose: 25.0 mg/kg/injection, schedule: Q07DX004 (ip), vehicle: saline) was 81 % of control. The T/C (endpoint: mean tumor weight, dose: 25.0 mg/kg/injection, schedule: Q07DX005 (ip), vehicle: saline) was 122 % of control, the T/C (endpoint: mean tumor weight, dose: 25.0 mg/kg/injection, schedule: Q07DX007 (ip), vehicle: saline) was 123 % of control and the T/C (endpoint: mean tumor weight, dose: 25.0 mg/kg/injection, schedule: Q07DX008 (ip), vehicle: saline) was 119 % of control. For the same molecule, the T/C (endpoint: mean tumor weight, dose: 50.0 mg/kg/injection, schedule: Q07DX004 (ip), vehicle: saline) was 6 % of control, the T/C (endpoint: mean tumor weight, dose: 50.0 mg/kg/injection, schedule: Q07DX005 (ip), vehicle: saline) was 9 % of control and the T/C (endpoint: mean tumor weight, dose: 50.0 mg/kg/injection, schedule: Q07DX007 (ip), vehicle: saline) was 5 % of control. For the same molecule, the T/C (endpoint: mean tumor weight, dose: 50.0 mg/kg/injection, schedule: Q07DX008 (ip), vehicle: saline) was 43 % of control, the T/C [5] was 39 % of control and the T/C [6] was 28 % of control.
For `CN(C(=S)S(=O)(=O)C12CC3CC(CC(C3)C1)C2)c1ccccc1`, the T/C (endpoint: median tumor weight (est.), dose: 6.25 mg/kg/injection, schedule: Q07DX005 (ip), vehicle: Klucel (hydroxypropylcellulose) (HPC)) was 66 % of control, the T/C (endpoint: median tumor weight (est.), dose: 12.5 mg/kg/injection, schedule: Q07DX005 (ip), vehicle: Klucel (hydroxypropylcellulose) (HPC)) was 84 % of control and the T/C (endpoint: median tumor weight (est.), dose: 25.0 mg/kg/injection, schedule: Q07DX005 (ip), vehicle: Klucel (hydroxypropylcellulose) (HPC)) was 81 % of control. The T/C (endpoint: median tumor weight (est.), dose: 50.0 mg/kg/injection, schedule: Q07DX005 (ip), vehicle: Klucel (hydroxypropylcellulose) (HPC)) was 77 % of control and the T/C (endpoint: median tumor weight (est.), dose: 100.0 mg/kg/injection, schedule: Q07DX005 (ip), vehicle: Klucel (hydroxypropylcellulose) (HPC)) was 61 % of control.
With `Nc1ccc(S(=O)(=O)Nc2cnc3c(Cl)cccc3n2)cc1` the T/C (endpoint: median tumor weight change, dose: 125.0 mg/kg/injection, schedule: Q01DX001 (ip), vehicle: DMSO) was 96 % of control, the T/C (endpoint: median tumor weight change, dose: 500.0 mg/kg/injection, schedule: Q01DX001 (ip), vehicle: DMSO) was 102 % of control and 121 % of control and the T/C (endpoint: median tumor weight change, dose: 2000.0 mg/kg/injection, schedule: Q01DX001 (ip), vehicle: DMSO) was 102 % of control.
In the case of `Cc1ccc(C2NC(=S)N3C(c4ccc(C)cc4)NC(=S)N23)cc1` (stereo not given), the T/C [1] is reported as 77 % of control, the T/C [2] is reported as 104 % of control and the T/C [4] is reported as 107 % of control. The T/C (endpoint: median tumor weight change, dose: 1000.0 mg/kg/injection, schedule: Q01DX001 (ip), vehicle: Klucel (hydroxypropylcellulose) (HPC)) was 94 % of control and the T/C (endpoint: median tumor weight change, dose: 2000.0 mg/kg/injection, schedule: Q01DX001 (ip), vehicle: Klucel (hydroxypropylcellulose) (HPC)) was 68 % of control.
`OCC12COCN1COC2` was tested, and the T/C (endpoint: median tumor weight change, dose: 50.0 mg/kg/injection, schedule: Q01DX001 (ip), vehicle: saline) was 100 % of control, the T/C (endpoint: median tumor weight change, dose: 100.0 mg/kg/injection, schedule: Q01DX001 (ip), vehicle: saline) was 107 % of control and the T/C (endpoint: median tumor weight change, dose: 200.0 mg/kg/injection, schedule: Q01DX001 (ip), vehicle: saline) was 71 % of control. For the same molecule, the T/C (endpoint: median tumor weight change, dose: 400.0 mg/kg/injection, schedule: Q01DX001 (ip), vehicle: saline) was 87 % of control and the T/C (endpoint: median tumor weight change, dose: 800.0 mg/kg/injection, schedule: Q01DX001 (ip), vehicle: saline) was 82 % of control.
In the case of `COc1cccc2c1C(=O)c1c(O)c3c(c(O)c1C2=O)CC(O)(/C(C)=N/NC(=O)CCCCC(=O)N/N=C(\C)C1(O)Cc2c(O)c4c(c(O)c2C(OC2CC(N)C(O)C(C)O2)C1)C(=O)c1c(OC)cccc1C4=O)CC3OC1CC(N)C(O)C(C)O1` (stereo not given), the T/C (endpoint: median tumor weight change, dose: 16.0 mg/kg/injection, schedule: Q01DX001 (ip), vehicle: water) is reported as 113 % of control and the T/C (endpoint: median tumor weight change, dose: 31.0 mg/kg/injection, schedule: Q01DX001 (ip), vehicle: water) is reported as 36 % of control.
In the case of `C[C@@H]1C[C@@H]([C@H](O)CC2CC(=O)NC(=O)C2)C(=O)[C@@H](C)C1`, the T/C (endpoint: median tumor weight change, dose: 62.5 mg/kg/injection, schedule: Q01DX001 (ip), vehicle: suspension in saline) is reported as 57 % of control, the T/C [3] is reported as 72 % of control and the T/C (endpoint: median tumor weight change, dose: 250.0 mg/kg/injection, schedule: Q01DX001 (ip), vehicle: suspension in saline) is reported as 57 % of control.
With `NC(=O)/C=C/C(=O)c1c(Cl)cccc1Cl` the T/C (endpoint: median tumor weight change, dose: 1.5 mg/kg/injection, schedule: Q01DX001 (ip), vehicle: saline with Tween-80) was 110 % of control, the T/C (endpoint: median tumor weight change, dose: 3.0 mg/kg/injection, schedule: Q01DX001 (ip), vehicle: saline with Tween-80) was 85 % of control and the T/C (endpoint: median tumor weight change, dose: 6.0 mg/kg/injection, schedule: Q01DX001 (ip), vehicle: saline with Tween-80) was 100 % of control. The T/C (endpoint: median tumor weight change, dose: 12.0 mg/kg/injection, schedule: Q01DX001 (ip), vehicle: saline with Tween-80) was 90 % of control, the T/C (endpoint: median tumor weight change, dose: 12.5 mg/kg/injection, schedule: Q01DX001 (ip), vehicle: saline with Tween-80) was 71 % of control and the T/C (endpoint: median tumor weight change, dose: 50.0 mg/kg/injection, schedule: Q01DX001 (ip), vehicle: saline with Tween-80) was 104 % of control. The T/C (endpoint: median tumor weight change, dose: 100.0 mg/kg/injection, schedule: Q01DX001 (ip), vehicle: saline with Tween-80) was 55 % of control.
`Nc1ncn(C2CC(O)C(CO)O2)c(=O)n1` (stereo not given) was tested, and the T/C (endpoint: median tumor weight (est.), dose: 0.37 mg/kg/injection, schedule: Q07DX005 (ip), vehicle: saline) was 37 % of control, the T/C (endpoint: median tumor weight (est.), dose: 0.75 mg/kg/injection, schedule: Q07DX005 (ip), vehicle: saline) was 25 % of control and the T/C (endpoint: median tumor weight (est.), dose: 1.5 mg/kg/injection, schedule: Q07DX005 (ip), vehicle: saline) was 9 % of control. For the same molecule, the T/C (endpoint: median tumor weight (est.), dose: 3.0 mg/kg/injection, schedule: Q07DX005 (ip), vehicle: saline) was 10 % of control.
